Measured values from patent US20210145827A1, “ANTIBIOTIC GEL FORMULATION AND METHODS OF PREPARING THE ANTIBIOTIC GEL FORMULATION” (Indiana University Research and Technology Corporation, priority 2015, published 2021).

Columns and labels:
[1] = tested on: three-week old E. faecalis biofilm; assay: biofilm disruption assay on infected dentin samples (Example 2); assay type: cell-based, E. faecalis (ATCC 29212); conditions: immersion 5 minutes
Protocol: Unidentified intact human teeth were collected, stored in 0.1% thymol solution at 4° C., and used within 6 months after obtaining local Institutional Review Board approval (IRB #1409251353). A standardized radicular dentin sample (4×4×1 mm^3) was obtained from each root using a slow diamond saw (IsoMet, Buehler, Lake Bluff, Ill.) under continuous distilled water irrigation. The pulpal side of each specimen was wet-finished with silicon carbide abrasive papers (500-2400 grit, Struers, Cleveland, Ohio). The polished samples were then sonicated in deionized water for 3 minutes, washed with sterile water, wrapped individually with moist cotton pellets, placed in Whirl-pak bags (Sigma-Aldrich, St Louis, Mo.), gas sterilized with ethylene oxide, and stored at 4° C. until used. E. faecalis (ATCC 29212) was grown initially on anaerobic blood agar plates (CDC, BioMerieux, Durham, N.C.). Colonies of E. faecalis were then suspended in brain-heart infusion (BHI) broth supplemented with 5 grams yeast extract/L (BHI-YE) and incubated for 24 hours at 37° C. with 5% CO2. Dentin samples were placed individually in separate wells of a 96-sterile well plate (Fisherbrand, Fischer Scientific) with the pulpal side facing upwards. […] The CFUs/mL were quantified using an automated colony counter (Synbiosis, Inc., Frederick, Md.). Summary statistics were calculated for the log-transformed data from each group. […]

[2] = tested on: stem cells from apical papillae and dental pulp stem cells; conditions: 2% CHX; in vitro studies; cited from earlier work

SMILES	antibiofilm effect (log CFU/mL) ([1]; 1.5% NaOCl)	antibiofilm effect (log CFU/mL) ([1]; 2% CHX, versus control groups, not complete eradication)	effect on survival and attachment of stem cells from apical and dental pulp [2]
OCl [NaOCl, sodium hypochlorite]	complete eradication		
N=C(NCCCCCCNC(=N)NC(=N)Nc1ccc(Cl)cc1)NC(=N)Nc1ccc(Cl)cc1 [CHX]		significant reduction in E. faecalis biofilm	highly unfavorable effects
